Results published in patent US20020022022A1, “Inhibition of cell proliferation and matrix synthesis by antioxidants and NAD(P)H oxidase inhibitors” (priority 2000, published 2002).
Entries after “also recorded” stand apart in the source; their conditions may differ. Like-named read-outs stand apart in the source and are kept apart here.

B1: CAT: catalase; removal of H2O2 (protein, UniProt P00432 2-527, looked up)
Catalase: ADNRDPASDQMKHWKEQRAAQKPDVLTTGGGNPVGDKLNSLTVGPRGPLLVQDVVFTDEMAHFDRERIPERVVHAKGAGAFGYFEVTHDITRYSKAKVFEHIGKRTPIAVRFSTVAGESGSADTVRDPRGFAVKFYTEDGNWDLVGNNTPIFFIRDALLFPSFIHSQKRNPQTHLKDPDMVWDFWSLRPESLHQVSFLFSDRGIPDGHRHMNGYGSHTFKLVNANGEAVYCKFHYKTDQGIKNLSVEDAARLAHEDPDYGLRDLFNAIATGNYPSWTLYIQVMTFSEAEIFPFNPFDLTKVWPHGDYPLIPVGKLVLNRNPVNYFAEVEQLAFDPSNMPPGIEPSPDKMLQGRLFAYPDTHRHRLGPNYLQIPVNCPYRARVANYQRDGPMCMMDNQGGAPNYYPNSFSAPEHQPSALEHRTHFSGDVQRFNSANDDNVTQVRTFYLKVLNEEQRKRLCENIAGHLKDAQLFIQKKAVKNFSDVHPEYGSRIQALLDKYNEEKPKNAVHTYVQHGSHLSAREKANL

Key:
[1] = system: adventitial fibroblasts; test: Cell proliferation assay, serum-stimulated adventitial fibroblasts (cell counting); type: cell-based, porcine; details: for effect on fibroblast growth (cell counting): 10% FBS, 3 days after treatment, concentration-dependent; for effect on serum-induced growth of vascular cells in vitro: serum-stimulated isolated vascular cells (fibroblasts and SMC, FIGS. 7A and 7B)
Protocol: (§1) Fibroblasts are isolated from the adventitia of porcine coronary arteries as described. (26) The cells (passage 2-6) are plated in triplicates at 10,000 cells/well in 24-well plates in DMEM supplemented with 10% FBS. At 24 hours later, cells are arrested in DMEM containing 0.5% FBS for 48 hours. Afterwards, they are stimulated with 10% FBS for 3 days with or without addition of indicated inhibitors. Cells are trypsinized at 72 hours after stimulation and counted in a Coulter counter. Values are derived from 3 wells/treatment and the experiments are repeated at least three times on separate occasions.

[2] = system: vascular SMC; test: Vascular SMC proliferation, serum-stimulated (cell counting); type: cell-based; details: 10% FBS, 3 days after treatment; concentration-dependent
Protocol: FIG. 7B. ROS and vascular SMC proliferation. SMC (10,000 cells/well) are arrested with 0.5% FBS for 48 hours and then stimulated with 10% FBS in the presence or absence of various inhibitors. Cell growth is examined at 3 days after treatment by cell counting. […] The experiments are repeated 3 times yielding similar results.
as §1

[3] = system: superoxide anion (—O2^−) generation in coronary adventitia; test: —O2^− production in uninjured coronary adventitia (SOD-inhibitable NBT reduction); type: cell-based, pigs; details: uninjured coronary rings pre-incubated with inhibitor; DPI 100 μM, ROT 50 μM, OXY 300 μM
Protocol: The production of —O2^− is measured by superoxide dismutase- (SOD) or tiron-inhibitable conversion of nitroblue tetrazolium (NBT) to formazan. (20,21)
—O2^− production in coronary arteries: Coronary arteries are dissected free from adipose tissue and myocardium and then cut into ˜5 mm rings and placed in 24-well plates. Tissues are balanced in phenol-free DMEM at 37° C. in a CO2 incubator for 30 minutes with or without addition of SOD (SOD, 1000 unit/ml) or tiron (10 mM), both scavengers of —O2^− Freshly made NBT (100 mg/L in phenol-free DMEM) is added to the tissues with a gentle rocking for 3 hours. The reaction is terminated by addition of equal volume of 0.5N HCl, and tissues are rinsed twice with cold PBS. To extract formazan, tissues are pulverized in liquid nitrogen and dissolved in 100% pyridine at 80° C. for 30 minutes. After centrifugation, light absorbance is read in supernatants at 540 nm. The NBT reduction to formazan is calculated using the following formula: NBT reduction=A×V/(T×E×L) (A: absorbance; V: volume of solubilizing solution; T: time of incubation with NBT (minutes); E: extinction coefficient=0.72 mmol.mm; L: length of light travel through the solution, 10 mm). Either SOD- or tiron-inhibitable NBT reduction is calculated as measures of —O2^− production (pmol/min/mg wet weight). To determine the pathways mediating —O2^− production, several inhibitors are used in the experiments, including diphenyleneiodonium (DPI, 100 μM), rotenone (ROT, 50 μM), oxypurinol (OXY, 300 μM), N^ω-nitro-L-arginine methyl ester (L-NAME, 1 mM), and diethyldithio-carbamic acid (DETCA, 10 mM). The n value represents the number of vascular rings obtained from at least 3 animals per experimental condition.

[4] = system: superoxide generation in injured coronary arteries; test: Superoxide generation in injured coronary arteries (SOD-inhibitable NBT reduction); type: cell-based, pigs; details: for Superoxide generation (SOD-inhibitable NBT reduction): rings pretreated 30 minutes, DPI 100 μM or L-NAME 1 mM; for effect on superoxide generation after coronary injury: injured coronary arteries, DPI 100 μM, L-NAME 1 mM
Text: Domestic crossbred female pigs (12-15 kg) are anesthetized and instrumented, as previously described. (22,23) After the exposure of the right common carotid artery, heparin (5,000 U) is intravenously administered. […] The third artery is used as a control. The animals are euthanatized with intravenous […] Laboratory) at the times indicated in the text. […] Coronary arteries are dissected free from adipose tissue and myocardium and then cut into 5 mm rings and placed in 24-well plates. […] The reaction is terminated by addition of equal volume of 0.5N HCl, and tissues are rinsed twice with cold PBS. To extract formazan, tissues are pulverized in liquid nitrogen and dissolved in 100% pyridine at 80° C. for 30 minutes. After centrifugation, light absorbance is read in supernatants at 540 nm. The NBT reduction to formazan is calculated using the following formula: NBT reduction=[…]: absorbance; V: volume of solubilizing solution; T: time of incubation with NBT (minutes); […] L: length of light travel through the solution, 10 mm).

[5] = system: superoxide anion (—O2^−) in SVG; test: Superoxide anion in saphenous vein grafts (SOD-inhibitable NBT reduction); type: cell-based, pigs; details: SVG 2 weeks after surgery, DPI 100 μM; for effect on superoxide anion in SVG (SOD-inhibitable NBT reduction): L-NAME 1 mM
Protocol: A porcine model of a graft interposition in the common carotid artery is used as described. (49) Domestic crossbred pigs (n=22) weighing 35-50 kg are sedated with Telazol (3-5 mg/kg) and atropine (0.01 mg/kg) i.m. Anesthesia is maintained with Propofol, i.v. (15 mg/kg/hr). The animals are ventilated with 100% oxygen. Saphenous veins are harvested without distension and incubated for 30 minutes in saline containing nitroglycerine (0.5 mg/ml). Both carotid arteries are dissected free and heparin (150 U/kg) is administered i.v. A ˜2 cm section of the carotid artery is excised and reversed vein interposition grafting is performed. The excised carotid artery then is grafted into the contralateral carotid artery. Postoperative analgesia is provided with Buprenex (0.015 mg/kg) i.m. The animals are given aspirin 650 mg/day p.o. At the times indicated, animals are euthanized with Euthasol (80 mg/kg) i.v. and vascular tissues harvested.
Superoxide anion (—O2^−) production is measured by SOD-inhibitable conversion of NTB to formazan. (20,21) Normal saphenous veins, arteries, SVG, and AG are harvested at 2 weeks after surgery. After the removal of adventitia and endothelium, tissues are cut into ˜5 mm strips, placed in a 24-well plate, and balanced in pheno-free DMEM at 37° C. in CO2 for 30 minutes. Freshly made NBT (0.1 mg/ml in pheno-free DMEM) is added for 3 hours with or without addition of SOD (1000 U/ml). The reaction is terminated by 0.5N HCl and rinsing twice with cold PBS. To extract formazan, tissues are pulverized in liquid nitrogen, dissolved in 100% pyridine at 80° C. for 30 minutes, and centrifuged. Supernatants are read at 540 nm and NBT reduction is calculated as follows: NBT reduction=A×V/(T×E×L) (A: absorbance; V: volume of solubilizing solution; T: time of incubation with NBT (minutes); E: extinction coefficient=0.72 mmol.mm; L: length of light travel through the solution (10 mm).) The SOD-inhibitable NBT reduction is calculated as a measure of —O2^− (pmol/mg wet weight/min). In separate experiments, the inhibitors of oxidative enzymes are used, inlcuding diphenyleneiodonium (DPI, 100 μM) rotenone (ROT, 50 μμM), oxypurinol (OXY, 300 μμM) and N^ω-nitro-L-arginine methyl ester (L-NAME, 1 mM), to determine the origin of —O2^− in vascular grafts.

[6] = system: —O2^− generation in coronary adventitial fibroblasts; test: Serum-induced —O2^− generation in coronary adventitial fibroblasts (NBT to formazan); type: cell-based, porcine
Protocol: —O2^− production in isolated adventitial fibroblasts: Adventitial fibroblasts (passage 2-6) are plated in 6-well plates at 100,000 cells/well in 10% FBS. Two (2) days later, when cells are ˜80% confluent, they are arrested in 0.5% FBS for the next 48 hours. Afterwards, they are stimulated with 10% FBS for 1-24 hours, followed by incubation with NBT (0.5 mg/ml in phenol-free DMEM) for one hour. After a brief washing, cells are trypsinized, and cell pellets are dissolved in 100% pyridine. The light absorbance is measured at 540 nm, and the NBT reduction to formazan is calculated as described above and corrected by cell number. Values are derived from 6-9 wells from three separate experiments.

[7] = cited from earlier work
[8] = pretreated 30 minutes, 10% FBS for 3 hours, DPI 10 μM, SOD 500 U/ml

Row | Molecule | effect on fibroblast growth (cell counting) [1] | effect on serum-induced growth of vascular cells in vitro [1] | effect on SMC growth (cell counting) [2] | effect on superoxide anion in SVG (SOD-inhibitable NBT reduction) [5] | effect on serum-induced —O2^− production [6, 8] | further results
1 | c1ccc2c(c1)[I+]c1ccccc1-2 [DPI, diphenyleneiodonium] | significantly inhibits | significantly inhibits; also recorded: abrogates | significantly inhibits | significantly reduced |  | effect on —O2^− generation in coronary adventitia (SOD-inhibitable NBT reduction) [3]: inhibits; also recorded: abolishes; Superoxide generation (SOD-inhibitable NBT reduction) ([4]; 2 days after injury): 0.5 ± 0.9 pmol/mg/min; Superoxide generation (SOD-inhibitable NBT reduction) ([4]; 10 days after injury): 0.2 ± 0.3 pmol/mg/min; effect on superoxide generation after coronary injury [4]: almost entirely abolishes; reduction of —O2^− in SVG [5]: > 95%; effect on serum-induced —O2^− production [6]: significant inhibition; also recorded: significant reduction
2 | COC(=O)[C@@H](N)CCCNC(=N)N[N+](=O)[O-] [L-NAME, N^ω-nitro-L-arginine methyl ester] |  | no significant effects |  | no effects; also recorded: do not decrease | no effects | Superoxide generation (SOD-inhibitable NBT reduction) ([4]; 2 days after injury): 12.9 ± 9.4 pmol/mg/min; Superoxide generation (SOD-inhibitable NBT reduction) ([4]; 10 days after injury): 11.5 ± 6.1 pmol/mg/min; effect on superoxide generation after coronary injury [4]: shows no effect
3 | CC(=O)N[C@@H](CS)C(=O)O [NAC, N-acetylcysteine] |  |  | significantly inhibits |  |  | 
4 | O=c1[nH]c(=O)c2c[nH]nc2[nH]1 [OXY, oxypurinol] |  | no significant effects |  | do not decrease | no effects | effect on —O2^− generation in coronary adventitia (SOD-inhibitable NBT reduction) [3]: no inhibitory effects; also recorded: no effect; effect on superoxide anion in SVG (SOD-inhibitable NBT reduction) ([5]; listed as oxypurinol): no effects
5 | C=C(C)[C@H]1Cc2c(ccc3c2O[C@@H]2COc4cc(OC)c(OC)cc4[C@@H]2C3=O)O1 [ROT, rotenone] |  |  |  | do not decrease | no effects | effect on —O2^− generation in coronary adventitia (SOD-inhibitable NBT reduction) [3]: no inhibitory effects; also recorded: no effect; effect on superoxide anion in SVG (SOD-inhibitable NBT reduction) ([5]; listed as rotenone): no effects
6 | COc1cc(C(C)=O)ccc1O [apocynin, 4-hydroxy-3-methoxyacetopoenone] |  |  | significantly inhibits |  |  | 
7 | CCOC(=O)[C@H](CCc1ccccc1)N[C@@H](C)C(=O)N1[C@H](C(=O)O)C[C@@H]2CCC[C@@H]21 [ramipril] |  |  |  |  |  | cardiovascular mortality ([7]; chronic administration, HOPE trial): reduction
8 | O=S(=O)(O)c1cc(O)c(O)c(S(=O)(=O)O)c1 [tiron] | significantly inhibits | inhibits; also recorded: abrogates | significantly inhibits |  |  | 
9 | SOD: superoxide dismutase, exogenous enzyme; dismutation of —O2^− to H2O2 | no significant inhibition | does not prevent; also recorded: ineffective | no significant inhibition |  | significant inhibition; also recorded: significant reduction | 
10 | vitamin E |  |  |  |  |  | clinical results with antioxidant ([7]; clinical): largely negative
11 | B1 | significantly inhibits | inhibits; also recorded: abrogates | significantly inhibits |  |  | 
